In brackets after ≈: the same amount, converted by molar mass.
Columns and labels:
[1] = test system: Staphylococcus epidermidis; test: In vitro broth dilution minimal inhibitory concentration (standard microdilution method); format: cell-based; conditions: Mueller-Hinton broth, 24-hour; for MIC: 24 h, read-out: Microdilution Broth MIC
[2] = test system: Escherichia coli; test: as above; format: cell-based; conditions: Escherichia coli, Mueller-Hinton broth, 24-hour; for MIC: read-out: Microdilution Broth MIC
[3] = test system: Escherichia coli; test: In vivo efficacy of orally administered compounds in mouse intraperitoneal infections; conditions: mouse i.p. Escherichia coli infection, oral, dosed at infection and 4 h post-infection, 7 days; for ED50: 168 h, read-out: ED50 (50 percent effective dose)
Experimental: (§1) Determinations of in vivo efficacy are performed by inoculating mice intraperitoneally with cultures of the infecting organism diluted to produce 90-100% mortality in control animals within twenty-four hours. The diluents used were trypticase soy broth for E. coli and 5% aqueous hog gastric mucin for Staphylococcus aureus infections. The compounds are dissolved or suspended in 0.25% aqueous Methocel® (Methocel®: Hydroxypropyl Methylcellulose E15 Premium, Dow Chemical Company) for oral administration or sterile distilled water containing 5% dimethylsulfoxide (Fisher Scientific Company, Fairlawn, N.J.) for subcutaneous administration. The mice are dosed at the time of infection and again at four hours post-infection. Mortality is recorded daily until test termination seven days post infection and the 50 percent effective dose, ED50, is calculated by the Reed-Muench method (Reed, L. G. and Muench, H., "A simple method of estimating fifty percent end points," American Journal of Hygiene, 27, 493-497 (1938).

[4] = test system: Staphylococcus aureus; test: as above; conditions: mouse i.p. Staphylococcus aureus infection, oral, dosed at infection and 4 h post-infection, 7 days; for ED50: Staphylococcus aureus, po, 168 h, read-out: ED50 (50 percent effective dose); for ED50 (50 percent effective dose): 10080 min
Experimental: as §1

[5] = test system: Staphylococcus aureus; test: In vivo efficacy of compounds administered subcutaneously in mouse intraperitoneal infections; conditions: mouse i.p. Staphylococcus aureus infection, subcutaneous, dosed at infection and 4 h post-infection, 7 days; for ED50: sc, 168 h, read-out: ED50 (50 percent effective dose); for ED50 (50 percent effective dose): 10080 min
Experimental: as §1

Row | MIC [1] [mg/L] | MIC [2] [mg/L] | Microdilution Broth MIC [1] [mg/L] | Microdilution Broth MIC [2] [mg/L] | Compound | ED50 [3] [mg/kg] | ED50 [4] [mg/kg] | ED50 [5] [mg/kg] | ED50 (50 percent effective dose) [3] [mg/kg] | ED50 (50 percent effective dose) [4] [mg/kg] | ED50 (50 percent effective dose) [5] [mg/kg]
1 | 6.3 (≈ 21.3 µM) | > 100 |  |  | CS(=O)(=O)c1ccc(N2CC(CN=[N+]=[N-])OC2=O)cc1 (single isomer, unassigned) [Example 2, (l)-5-Azidomethyl-3-[4-(methylsulfonyl)phenyl]-2-oxazolidinone] | 52.6 | 7.3 |  |  |  | 
2 | 25 (≈ 84.1 µM) | > 100 |  |  | [N-]=[N+]=NCC1CN(c2ccc(S(N)(=O)=O)cc2)C(=O)O1 (single isomer, unassigned) [Example 3, (l)-4-[5-(Azidomethyl)-2-oxooxazolidin-3-yl]benzenesulfonamide] | > 120 | 29.3 |  |  |  | 
3 | > 100 | > 100 |  |  | CS(=O)(=O)c1ccc(N2CC(CN)OC2=O)cc1 (single isomer, unassigned) [Example 11, (l)-5-Aminomethyl-3-[4-(methylsulfonyl)phenyl]-2-oxazolidinone] | 47.4 | 29.9 | 16.4 |  |  | 
4 | 6.3 (≈ 21.1 µM) | 100 (≈ 335 µM) |  |  | CS(=O)(=O)c1ccc(N2CC(CNC=O)OC2=O)cc1 (single isomer, unassigned) [Example 21, (l)-N-[3-[4-(Methylsulfonyl)phenyl]-2-oxooxazolidin-5-ylmethyl]formamide] | 30.3 | 7.3 |  |  |  | 
5 | 3.2 (≈ 10.2 µM) | 25 (≈ 80 µM) |  |  | CC(=O)NCC1CN(c2ccc(S(C)(=O)=O)cc2)C(=O)O1 (single isomer, unassigned) [Example 23, (l)-N-[3-[4-(Methylsulfonyl)phenyl]-2-oxooxazolidin-5-ylmethyl]acetamide] | 14 | 3.3 |  |  |  | 
6 | 3.9 (≈ 13.9 µM) | > 200 |  |  | CSc1ccc(N2CC(CNC(C)=O)OC2=O)cc1 (single isomer, unassigned) [Example 31, (l)-N-[3-[4-(methylthio)phenyl]-2-oxooxazolidin-5-ylmethyl]acetamide] | 19.6 | 3.5 | < 4.4 |  |  | 
7 | 3.1 (≈ 11.2 µM) | > 200 |  |  | CC(=O)NCC1CN(c2ccc(C(C)C)cc2)C(=O)O1 (single isomer, unassigned) [Example 51, (l)-N-[3-(4-isopropylphenyl)-2-oxooxazolidin-5-ylmethyl]acetamide] | 62.9 | 6.4 |  |  |  | 
8 | 18.8 (≈ 60.2 µM) | > 200 |  |  | COC(=O)NCC1CN(c2ccc([S+](C)[O-])cc2)C(=O)O1 (single isomer, unassigned) [Example 121, (l)-N-[3-[4-(Methylsulfinyl)phenyl]-2-oxooxazolidin-5-ylmethyl]carbamic acid, methyl ester] | 55.9 | 2.5 |  |  |  | 
9 | 6.3 (≈ 19.3 µM) | 50 (≈ 153 µM) |  |  | CCC(=O)NCC1CN(c2ccc(S(C)(=O)=O)cc2)C(=O)O1 (stereo not shown) [Example 27] | 37 | 8 |  |  |  | 
10 |  |  | 6.3 | > 200.0 | COC(=O)NCC1CN(c2ccc(C(C)C)cc2)C(=O)O1 (stereo not shown) [Example 52] |  |  |  | > 120.0 | 4.9 | 
11 | 100 (≈ 386 µM) | > 200 |  |  | CC(=O)NCC1CN(c2ccc(C#N)cc2)C(=O)O1 (stereo not shown) [Example 59] | 88 | 4.3 |  |  |  | 
12 | 50 (≈ 180 µM) | > 200 |  |  | CC(=O)NCC1CN(c2ccc3c(c2)OCO3)C(=O)O1 (stereo not shown) [Example 62] | > 120 | 19.1 |  |  |  | 
13 | 9.4 (≈ 29 µM) | 150 (≈ 462 µM) |  |  | C=CC(=O)NCC1CN(c2ccc(S(C)(=O)=O)cc2)C(=O)O1 (stereo not shown) [Example 69] | 65.7 | 11.9 |  |  |  | 
14 | 50 (≈ 163 µM) | > 200 |  |  | CSc1ccc(N2CC(CNC(=O)C3CC3)OC2=O)cc1 (stereo not shown) [Example 71] |  | > 120 | 69.3 |  |  | 
15 | 25 (≈ 73.9 µM) | 200 (≈ 591 µM) |  |  | CS(=O)(=O)c1ccc(N2CC(CNC(=O)C3CC3)OC2=O)cc1 (stereo not shown) [Example 72] |  | > 120 | 15.2 |  |  | 
16 | 200 (≈ 806 µM) | > 200 |  |  | CC(=O)NCC1CN(c2ccc(C)cc2)C(=O)O1 (stereo not shown) [Example 79] |  | 99.8 | 85.1 |  |  | 
17 | 25 (≈ 81.6 µM) | > 200 |  |  | CCCCc1ccc(N2CC(CNC(=O)OC)OC2=O)cc1 (stereo not shown) [Example 80] |  | 64 | 42.3 |  |  | 
18 | 25 (≈ 93.9 µM) | > 200 |  |  | CSc1ccc(N2CC(CNC=O)OC2=O)cc1 (stereo not shown) [Example 89] | > 138 | 11 |  |  |  | 
19 | 25 (≈ 88.6 µM) | > 200 |  |  | C[S+]([O-])c1ccc(N2CC(CNC=O)OC2=O)cc1 (stereo not shown) [Example 90] | 98.4 | 11.3 |  |  |  | 

Row | MIC [1] [mg/L] | MIC [2] [mg/L] | Microdilution Broth MIC [1] [mg/L] | Microdilution Broth MIC [2] [mg/L] | Compound | ED50 [3] [mg/kg] | ED50 [4] [mg/kg] | ED50 [5] [mg/kg] | ED50 (50 percent effective dose) [3] [mg/kg] | ED50 (50 percent effective dose) [4] [mg/kg] | ED50 (50 percent effective dose) [5] [mg/kg]
20 | 12.5 (≈ 43.4 µM) | > 50 |  |  | C=CC(=O)NCC1CN(c2ccc(C(C)=O)cc2)C(=O)O1 (stereo not shown) [Example 96] | 83.2 | 7.9 |  |  |  | 
21 | 25 (≈ 86.1 µM) | > 200 |  |  | CC(=O)Cc1ccc(N2CC(CNC(C)=O)OC2=O)cc1 (stereo not shown) [Example 99] |  | 77.4 | 20.1 |  |  | 
22 | 12.5 (≈ 42.8 µM) | > 200 |  |  | CC(=O)NCC1CN(c2ccc(CC(C)O)cc2)C(=O)O1 (stereo not shown) [Example 100] |  | 19.5 | 10.5 |  |  | 
23 | 4 (≈ 15.4 µM) | 128 (≈ 492 µM) |  |  | C=Cc1ccc(N2CC(CNC(C)=O)OC2=O)cc1 (stereo not shown) [Example 101] |  | 10.6 | 4.8 |  |  | 
24 | 16 (≈ 51.9 µM) | > 128 |  |  | CC(=O)NCC1CN(c2ccc(C(C)(O)CO)cc2)C(=O)O1 (stereo not shown) [Example 102] |  | 24 | 9 |  |  | 
25 | 1 (≈ 3.44 µM) | > 128 |  |  | CC(=O)NCC1CN(c2ccc(C(C)(C)C)cc2)C(=O)O1 (stereo not shown) [Example 105] |  | 10.8 | 13.8 |  |  | 
26 | 2 (≈ 6.84 µM) | > 128 |  |  | CC(=O)NCC1CN(c2ccc(CCCO)cc2)C(=O)O1 (stereo not shown) [Example 107] |  | > 60 | 18.6 |  |  | 
27 | 2 (≈ 5.68 µM) | > 128 |  |  | CC(=O)NCC1CN(c2ccc(C(F)(F)C(F)(F)F)cc2)C(=O)O1 (stereo not shown) [Example 108] |  | 8.4 | 20.4 |  |  | 
28 | 12.5 (≈ 33.5 µM) | > 200 |  |  | COC(=O)NCC1CN(c2ccc(S(=O)(=O)N(C)OC)cc2)C(=O)O1 (stereo not shown) [Example 116] |  | 25.9 | 14.9 |  |  | 
29 | > 200 | > 200 |  |  | COC(=O)N(C)CC1CN(c2ccc(S(C)(=O)=O)cc2)C(=O)O1 (stereo not shown) [Example 128] |  | 62 | 33.6 |  |  | 
30 | 4 (≈ 7.8 µM) | 128 (≈ 250 µM) |  |  | CC(=O)NCC1CN(c2ccc(C(=O)C(Br)(Br)Br)cc2)C(=O)O1 (stereo not shown) [Example 140] |  | 6.6 | 13.2 |  |  | 
31 | 8 (≈ 23.2 µM) | > 128 |  |  | CC(=O)NCC1CN(c2ccc(C(=O)C3CCCCC3)cc2)C(=O)O1 (stereo not shown) [Example 141] |  | 40.2 | 20.8 |  |  | 
32 | 16 (≈ 52.6 µM) | > 128 |  |  | CCc1cc(N2CC(CNC(C)=O)OC2=O)ccc1C(C)=O (stereo not shown) [Example 143] |  | 20.8 | 11.9 |  |  | 
33 |  |  | 25.0 | > 200.0 | CC(=O)NCC1CN(c2ccc([S+]([O-])CCO)cc2)C(=O)O1 (stereo not shown) [Example 168, (l)-N-[3-[4-(2-Hydroxyethylsulfinyl)phenyl]-2-oxo-oxazolidin-5-ylmethyl]acetamide] |  |  |  |  | 49.8 | 24.3
34 |  |  | 50.0 | 200.0 | CC(=O)NCC1CN(c2ccc([S+]([O-])CCO)cc2)C(=O)O1 (stereo not shown) [Example 169, (l)-N-[3-[4-(2-Hydroxyethylsulfinyl)phenyl]-2-oxo-oxazolidin-5-ylmethyl]acetamide] |  |  |  |  | 99.1 | 12.1
35 | 32 (≈ 110 µM) | > 128 |  |  | CC(=O)c1ccc(N2CC(CNC(=O)CN)OC2=O)cc1 (stereo not shown) [Example 176] |  | 30.9 | 11.2 |  |  | 
36 | 16 (≈ 48.4 µM) | > 128 |  |  | CC(=O)c1ccc(N2CC(CNC(=O)C(F)(F)F)OC2=O)cc1 (stereo not shown) [Example 178] |  | 31.6 | 31.6 |  |  | 
37 | 4 (≈ 13.5 µM) | 128 (≈ 432 µM) |  |  | CC(=O)NC[C@H]1CN(c2ccc([S@@+](C)[O-])cc2)C(=O)O1 [Example 180] |  | 2.5 | 0.8 |  |  | 
38 | 16 (≈ 54 µM) | > 128 |  |  | CC(=O)NC[C@H]1CN(c2ccc([S@+](C)[O-])cc2)C(=O)O1 [Example 181, (S,S)-N-[3-[4-(Methylsulfinyl)phenyl]-2-oxo-5-oxazolidinylmethyl]acetamide] |  | 2.8 | 1 |  |  | 

— patent US4705799A, “Aminomethyl oxooxazolidinyl benzenes useful as antibacterial agents” (E. I. Du Pont de Nemours and Company, priority 1985, dated 1987)
